Experimental data reported in PMC10743905, “Design, Synthesis, and In Vitro and In Vivo Bioactivity Studies of Hydrazide–Hydrazones of 2,4-Dihydroxybenzoic Acid” (International Journal of Molecular Sciences, 2023).
Converted amounts (≈) assume the structure as drawn. Like-named read-outs stand apart in the source and are kept apart here.

How the values were obtained:
Format in all cases: cell-based
[1] = system: Micrococcus luteus ATCC 10240; experiment: Broth microdilution MIC/MBC; conditions: for MBC: ATCC10240
Outline: (§1)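 Preliminary agar screening used 2 mg/mL compound with incubation at 37°C for 24 h (bacteria) or 30°C for 48 h (fungi). Subsequent MIC determination: two-fold broth microdilution, 1000 to 0.488 µg/ml final.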

[2] = system: Staphylococcus aureus ATCC 43300; experiment: Broth microdilution MIC/MBC; conditions: Staphylococcus aureus ATCC 43300 (MRSA)
Outline: as §1

[3] = system: Staphylococcus aureus ATCC 29213; experiment: Broth microdilution MIC/MBC; conditions: for MBC / MIC: ATCC29213
Outline: as §1

[4] = system: Proteus mirabilis ATCC 12453; experiment: Broth microdilution MIC/MBC; conditions: for MBC / MIC: ATCC12453
Outline: as §1

[5] = system: Salmonella typhimurium ATCC 14028; experiment: Broth microdilution MIC/MBC; conditions: for MBC / MIC: Salmonella enterica
Outline: as §1

[6] = system: Pseudomonas aeruginosa ATCC 9027; experiment: Broth microdilution MIC/MBC; conditions: for MBC / MIC: ATCC9027
Outline: as §1

[7] = system: Staphylococcus epidermidis ATCC 12228; experiment: Broth microdilution MIC/MBC; conditions: for MBC: ATCC12228
Outline: as §1

[8] = system: reference Gram-positive bacteria; experiment: Broth microdilution, summary over the Gram-positive panel
Description: In vitro antimicrobial activity assays - Methodology
The examined compounds 1 - 24 were screened in vitro for antibacterial and antifungal activities using the broth microdilution method according to procedure reported earlier by our research group and European Committee on Antimicrobial Susceptibility Testing (EUCAST) and Clinical and Laboratory Standards Institute (CLSI) guidelines against a panel of reference and clinical or saprophytic strains of microorganisms, in-cluding Gram-positive bacteria, Staphylococcus aureus ATCC 43300 (Methicillin Resistant S. aureus – MRSA), Staphylococcus aureus ATCC 29213 (Methicillin Susceptible S. aureus – MSSA), Staphylococcus epidermidis ATCC 12228, Enterococcus faecalis ATCC 29212, Micro-coccus luteus ATCC 10240, Bacillus subtilis ATCC 6633 and Bacillus cereus ATCC 10876), Gram-negative bacteria (Bordetella bronchiseptica ATCC 4617, Escherichia coli ATCC 25922, Klebsiella pneumoniae ATCC 13883, Proteus mirabilis ATCC 12453, Salmonella typhimurium ATCC 14028 and Pseudomonas aeruginosa ATCC 9027) and fungi belonging to yeasts (Can-dida albicans ATCC 10231, Candida albicans ATCC 2091, Candida parapsilosis ATCC 22019, Candida glabrata ATCC 90030 and Candida krusei ATCC 14243). The microorganisms be-longing to ATCC came from American Type Culture Collection, routinely used for the evaluation of antimicrobials. […]
Samples containing examined compounds were dissolved in dimethyl sulfoxide (DMSO). […]
Subsequently, the MIC (Minimal Inhibitory Concentration) of the compounds was ex-amined by the microdilution broth method, using their two-fold dilutions in Mueller- […]
Hinton broth or (for bacteria) and RPMI 1640 broth with MOPS (for fungi) prepared in 96-well polystyrene plates. Final concentrations of the compounds ranged from 1000 to 0.488 µg/ml. Microbial suspensions were prepared in 0.85% NaCl with an optical density of 0.5 McFarland standard. Next each bacterial or fungal suspension was added per each well containing broth and various concentrations of the examined compounds. After incuba-

HepG2 = experiment: MTT antiproliferative assay; conditions: Homo sapiens, 24 h incubation, hepatocellular carcinoma
Experimental: (§2) The in vitro studies were performed on the reference line HEK-293 (human embryonic kidney cells, ATCC® CRL-1573™) and […] human cancer cell lines: 769-P (adenocarcinoma, renal cells, ATCC® CRL-1933™) and HepG2 (carcinoma, hepatocellular, ATCC® HB-8065™), H1563 (adenocarcinoma, non-smallcell lung cancer, ATCC® CRL-5875™), LN-229 (glioblastoma, ATCC® CRL-2611™). Cells from the 769-P and H1563 cell lines were cultured in RPMI-1640 growth medium (PAN Biotech GmbH, Aidenbach, Bayern, Germany), cells from the HEK-293 and HepG2 cell lines were cultured in EMEM growth medium (PAN Biotech GmbH, Aidenbach, Bayern, Germany), and cells from the LN-229 cell line were cultured in DMEM growth medium (PAN Biotech GmbH, Aidenbach, Bayern, Germany) in sterile 75 cm^2 culture phalcones. Fetal bovine serum (PAN Biotech GmbH, Aidenbach, Bayern, Germany) at 10% of growth medium and antibiotics (Sigma-Aldrich, Poland) (2.5 µg/mL amphotericin B, 100 µg/mL penicillin, and 100 µg/mL streptomycin) were added to all media. Cells were cultured at 37 °C in an incubator with 5% CO2 flow until a cell layer was formed. Following this, the medium was removed, and the cells were washed with 0.25% trypsin solution with 2.21 mM EDTA (Corning Incorporated, Corning, NY, USA) in order to completely remove fetal bovine serum containing trypsin inhibitor. Finally, 6 mL of complete growth medium was added, and the cells were aspirated by gentle pipetting.
(§3) The determination of inhibitory concentration (IC50) in the HEK-293, 769-P, HepG2, H1563, and LN-229 cell cultures for selected hydrazide–hydrazones was performed using the MTT assay procedure. This test was performed according to the MTT Assay ECVAM n°17 protocol manual prepared by the European Centre for the Validation of Alternative Methods (ECVAM), an entity that aims to reduce in vivo testing in favor of in vitro and in silico methods. To 96-well sterile plates, 100 μL of cell suspensions, prepared in the appropriate medium at a concentration of 3 × 10^5 cells/mL, was added using a multichannel pipette. To achieve cell adhesion to the bottom of the plates, cells were incubated for 24 h at 37 °C with 5% CO2 flow and 90% humidity. […] After this time, all medium was removed, 100 μL of DMSO (Corning Incorporated, Corning, NY, USA) was added to each well, and absorbance measurements were performed at 550 nm using a Power Weave xs spectrophotometric microplate reader (BioTek, Winooski, VT, USA). The decrease in absorbance is equivalent to the decrease in MTT formazan production, which is due to the decrease in mitochondrial dehydrogenase activity and indicates a cytotoxic effect from the tested substances. Cell viability is expressed as a percentage as the ratio of the absorbance of test substance-treated cells to the untreated cells. […]

HEK-293 = experiment: MTT cytotoxicity assay, reference line; conditions: Homo sapiens, HEK293, 24 h incubation, non-tumor reference line
Experimental: as §2, §3

CCCc1ccc(/C=N/NC(=O)c2ccc(O)cc2O)cc1 [Compound 13, 2,4-dihydroxy-N-[(4-propylphenyl)methylidene]benzohydrazide]
MBC/MIC [1]: > 1
MBC [1]: > 1000 µg/mL
MIC ([1]; ATCC10240, read-out: MIC): 1000 µg/mL (≈ 3.35 mM)
MBC [2]: > 1000 µg/mL
MBC/MIC [2]: > 1
MIC [2]: 1000 µg/mL (≈ 3.35 mM)
MBC/MIC [3]: > 1
MBC [3]: > 1000 µg/mL
MIC [3]: 1000 µg/mL (≈ 3.35 mM)
MBC/MIC [4]: > 1
MBC [4]: > 1000 µg/mL
MIC [4]: 1000 µg/mL (≈ 3.35 mM)
MBC/MIC [5]: > 1
MBC [5]: > 1000 µg/mL
MIC [5]: 1000 µg/mL (≈ 3.35 mM)
MBC/MIC [6]: > 1
MBC [6]: > 1000 µg/mL
MIC [6]: 1000 µg/mL (≈ 3.35 mM)
MBC/MIC [7]: > 1
MBC [7]: > 1000 µg/mL
MIC ([7]; ATCC12228, read-out: MIC): 1000 µg/mL (≈ 3.35 mM)
MBC [8]: > 1000 µg/mL
MIC ([8]; read-out: MIC): 1000 µg/mL (≈ 3.35 mM)

O=C(N/N=C/c1cc(I)cc(I)c1O)c1ccc(O)cc1O [Compound 18, 2,4-dihydroxy-N-[(2-hydroxy-3,5-diiodophenyl)methylidene]benzohydrazide]
MBC/MIC [1]: 4
MIC [1]: 0.48 µg/mL (≈ 0.000916 mM)
MBC [1]: 1.95 µg/mL (≈ 0.00372 mM)
MIC ([1]; ATCC10240, read-out: MIC): 0.48 µg/mL (≈ 0.000916 mM)
MBC [2]: 31.2 µg/mL (≈ 0.0596 mM)
MBC/MIC [2]: 8
MIC [2]: 3.91 µg/mL (≈ 0.00746 mM)
MBC/MIC [3]: 2
MBC [3]: 15.6 µg/mL (≈ 0.0298 mM)
MIC [3]: 7.81 µg/mL (≈ 0.0149 mM)
MBC/MIC [4]: > 2
MBC [4]: > 1000 µg/mL
MIC [4]: 500 µg/mL (≈ 0.954 mM)
MBC/MIC [5]: > 1
MBC [5]: > 1000 µg/mL
MIC [5]: 1000 µg/mL (≈ 1.91 mM)
MBC/MIC [6]: > 1
MBC [6]: > 1000 µg/mL
MIC [6]: 1000 µg/mL (≈ 1.91 mM)
MBC/MIC [7]: 8
MIC [7]: 0.98 µg/mL (≈ 0.00187 mM)
MBC [7]: 7.81 µg/mL (≈ 0.0149 mM)
MIC ([7]; ATCC12228, read-out: MIC): 0.98 µg/mL (≈ 0.00187 mM)
MBC [8]: 1.95 to 31.2 µg/mL (≈ 0.00372 to 0.0596 mM)
MIC ([8]; read-out: MIC): 0.48 to 7.81 µg/mL (≈ 0.000916 to 0.0149 mM)

O=C(N/N=C/c1ccccc1[N+](=O)[O-])c1ccc(O)cc1O [Compound 19, 2,4-dihydroxy-N-[(2-nitrophenyl)methylidene]benzohydrazide]
MBC/MIC [1]: > 1
MBC [1]: > 1000 µg/mL
MIC ([1]; ATCC10240, read-out: MIC): 1000 µg/mL (≈ 3.32 mM)
MBC [2]: > 1000 µg/mL
MBC/MIC [2]: > 2
MIC [2]: 500 µg/mL (≈ 1.66 mM)
MBC/MIC [3]: > 1
MBC [3]: > 1000 µg/mL
MIC [3]: 1000 µg/mL (≈ 3.32 mM)
MBC/MIC [4]: > 1
MBC [4]: > 1000 µg/mL
MIC [4]: 1000 µg/mL (≈ 3.32 mM)
MBC/MIC [5]: > 1
MBC [5]: > 1000 µg/mL
MIC [5]: 1000 µg/mL (≈ 3.32 mM)
MBC/MIC [6]: > 1
MBC [6]: > 1000 µg/mL
MIC [6]: 1000 µg/mL (≈ 3.32 mM)
MBC/MIC [7]: > 2
MBC [7]: > 1000 µg/mL
MIC ([7]; ATCC12228, read-out: MIC): 500 µg/mL (≈ 1.66 mM)
MIC [8]: 250 to 1000 µg/mL (≈ 0.83 to 3.32 mM)
IC50 (HepG2): > 500 µM

O=C(N/N=C/c1cccc([N+](=O)[O-])c1)c1ccc(O)cc1O [Compound 20, 2,4-dihydroxy-N-[(3-nitrophenyl)methylidene]benzohydrazide]
MIC ([1]; ATCC10240, read-out: MIC): > 1000 µg/mL
MIC [2]: > 1000 µg/mL
MIC [3]: > 1000 µg/mL
MIC [4]: > 1000 µg/mL
MIC [5]: > 1000 µg/mL
MIC [6]: > 1000 µg/mL
MIC ([7]; ATCC12228, read-out: MIC): > 1000 µg/mL
IC50 (HEK-293): 13400 µM
IC50 (HepG2): > 500 µM

O=C(N/N=C/c1ccc([N+](=O)[O-])cc1)c1ccc(O)cc1O [Compound 21, 2,4-dihydroxy-N-[(4-nitrophenyl)methylidene]benzohydrazide]
MBC/MIC [1]: > 1
MBC [1]: > 1000 µg/mL
MIC ([1]; ATCC10240, read-out: MIC): 1000 µg/mL (≈ 3.32 mM)
MBC [2]: > 1000 µg/mL
MBC/MIC [2]: > 2
MIC [2]: 500 µg/mL (≈ 1.66 mM)
MBC/MIC [3]: > 2
MBC [3]: > 1000 µg/mL
MIC [3]: 500 µg/mL (≈ 1.66 mM)
MIC [4]: > 1000 µg/mL
MIC [5]: > 1000 µg/mL
MIC [6]: > 1000 µg/mL
MBC/MIC [7]: > 2
MBC [7]: > 1000 µg/mL
MIC ([7]; ATCC12228, read-out: MIC): 500 µg/mL (≈ 1.66 mM)
MIC [8]: 500 to 1000 µg/mL (≈ 1.66 to 3.32 mM)
IC50 (HepG2): 7.81 µM

O=C(N/N=C/c1ccccc1Cl)c1ccc(O)cc1O [Compound 22, N-[(2-chlorophenyl)methylidene]-2,4-dihydroxybenzohydrazide]
MIC ([1]; ATCC10240, read-out: MIC): > 1000 µg/mL
MIC [2]: > 1000 µg/mL
MIC [3]: > 1000 µg/mL
MIC [4]: > 1000 µg/mL
MIC [5]: > 1000 µg/mL
MIC [6]: > 1000 µg/mL
MBC/MIC [7]: > 1
MBC [7]: > 1000 µg/mL
MIC ([7]; ATCC12228, read-out: MIC): 1000 µg/mL (≈ 3.44 mM)
IC50 (HEK-293): 315 µM

O=C(N/N=C/c1ccccc1Br)c1ccc(O)cc1O [Compound 23, N-[(2-bromophenyl)methylidene]-2,4-dihydroxybenzohydrazide]
MIC ([1]; ATCC10240, read-out: MIC): > 1000 µg/mL
MIC [2]: > 1000 µg/mL
MIC [3]: > 1000 µg/mL
MIC [4]: > 1000 µg/mL
MIC [5]: > 1000 µg/mL
MIC [6]: > 1000 µg/mL
MBC/MIC [7]: > 2
MBC [7]: > 1000 µg/mL
MIC ([7]; ATCC12228, read-out: MIC): 500 µg/mL (≈ 1.49 mM)
IC50 (HEK-293): 91800 µM

O=C(N/N=C/c1ccccc1F)c1ccc(O)cc1O [Compound 24, N-[(2-fluorophenyl)methylidene]-2,4-dihydroxybenzohydrazide]
MBC/MIC [1]: > 1
MBC [1]: > 1000 µg/mL
MIC ([1]; ATCC10240, read-out: MIC): 1000 µg/mL (≈ 3.65 mM)
MIC [2]: > 1000 µg/mL
MIC [3]: > 1000 µg/mL
MIC [4]: > 1000 µg/mL
MIC [5]: > 1000 µg/mL
MIC [6]: > 1000 µg/mL
MIC ([7]; ATCC12228, read-out: MIC): > 1000 µg/mL
IC50 (HEK-293): 387 µM
IC50 (HepG2): > 500 µM
